Laboratory results as given in patent US20200206108A1, “Oral Care Compositions and Methods of Use” (Colgate-Palmolive Company, priority 2018, published 2020).

Experiment: Zeta potential of zinc oxide in the presence of amino acids
Assay type: physicochemical
Details: aqueous zinc oxide suspension 12 mM, alone (pH 8) or with the named amino acid (1.7 mmol) added
Experimental: The effect on zinc oxide particle charge upon exposure to amino acids was screened using zeta potential. Specific amino acids were selected based on side chain functionality: L-serine (polar, neutral), L-arginine (polar, cationic), and L-glutamic acid (polar, anionic). For zeta potential measurements, select amino acids (1.7 mmol) were added to aqueous suspensions of zinc oxide (12 mM). This concentration of zinc oxide was studied so as to minimize aggregation during zeta potential measurements. Each amino acid-zinc oxide solution was vortexed, sonicated, and then loaded into a Zetasizer DTS 1061 capillary cuvette. The cuvette was placed in the Zetasizer instrument and 12 zeta runs were performed. An average zeta potential value was calculated from the results.

| Structure (SMILES) | zeta potential (charge of zinc oxide) |
| --- | --- |
| N=C(N)NCCC[C@H](N)C(=O)O [L-arginine] | +36 mV |
| [O]=[Zn] [Zinc oxide, zinc oxide] | +16 mV |
| N[C@@H](CO)C(=O)O [L-serine] | did not alter the charge |
| N[C@@H](CCC(=O)O)C(=O)O [L-glutamic acid] | −28 mV |
